Reference: patent US6515002B2, “Compounds and compositions for treating C1s-mediated diseases and conditions” (3-Dimensional Pharmaceuticals, Inc., priority 1999, dated 2003)

Target: T1, C1s (Homo sapiens, UniProt P09871)
T1 construct: purchased Enzyme Research, South Bend, Ind
T1 sequence (P09871 438-688 limits assumed): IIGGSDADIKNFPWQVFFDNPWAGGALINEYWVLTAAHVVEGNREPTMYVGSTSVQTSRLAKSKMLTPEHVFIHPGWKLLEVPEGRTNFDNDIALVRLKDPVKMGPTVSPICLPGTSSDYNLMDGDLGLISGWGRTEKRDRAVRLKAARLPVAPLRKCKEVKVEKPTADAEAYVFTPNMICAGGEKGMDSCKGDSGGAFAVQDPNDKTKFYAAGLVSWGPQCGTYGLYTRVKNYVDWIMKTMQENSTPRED
T1 sequence (P09871 16-437 partner limits assumed): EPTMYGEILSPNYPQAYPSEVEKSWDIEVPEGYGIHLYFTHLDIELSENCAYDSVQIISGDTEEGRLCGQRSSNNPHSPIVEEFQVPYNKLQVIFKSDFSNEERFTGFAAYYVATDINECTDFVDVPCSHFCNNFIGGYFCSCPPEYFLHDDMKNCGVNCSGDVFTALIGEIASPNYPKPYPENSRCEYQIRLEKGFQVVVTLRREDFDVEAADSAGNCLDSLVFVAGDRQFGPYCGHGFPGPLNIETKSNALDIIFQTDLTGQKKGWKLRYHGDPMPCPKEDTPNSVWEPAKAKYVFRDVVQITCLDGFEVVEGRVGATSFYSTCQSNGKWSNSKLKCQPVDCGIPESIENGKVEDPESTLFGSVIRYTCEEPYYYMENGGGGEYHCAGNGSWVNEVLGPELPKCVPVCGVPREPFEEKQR
Test: In vitro Inhibition of C1s (Ki determination, Z-Gly-Arg-5-Bzl/DTNB hydrolysis)
Format: biochemical
Settings: purified activated C1s 7.3 nM, substrate Z-Gly-Arg-5-Bzl 45 μM, DTNB 200 μM, pH 7.5, 37° C.
Description: Reagents: All buffer salts were obtained from Sigma Chemical Company (St. Louis, Mo.), and were of the highest purity available.
Ki Determinations: All assays are based on the ability of the test compound to inhibit the Cis catalyzed hydrolysis of the substrate Z-Gly-Arg-5-Bzl via an intermediate reaction with 5,5′-dithio-bis(2-nitrobenzoic acid) (DTNB). [Complement C1s is available commercially from Enzyme Research, South Bend, Ind.] In a typical Ki determination, substrate is prepared in DMSO, and diluted into an assay buffer consisting of 50 mM HEPES, 200 mM NaCl, pH 7.5. […] In general, substrate concentrations are lower than the experimentally determined value for Km. […]
In a typical Ki determination, into each well of a 96-well plate is pipetted 280 μL of substrate solution, 10 μL of test compound solution, and the plate allowed to thermally equilibrate at 37° C. for 15 minutes. Reactions were initiated by the addition of a 10 μL aliquot of the enzyme and the absorbance increase at 405 nm is recorded for 5 minutes in a Molecular Devices plate reader. […] The ratio of the velocity (rate of change in absorbance as a function of time) for a sample containing no test compound is divided by the velocity of a sample containing test compound, and is plotted as a function of test compound concentration. The data are fit to a linear regression, and the value of the slope of the line calculated. […]

Which Ki does the source give for “4-[4-(3-{[(2,4-Difluorophenyl)sulfonyl]amino}phenyl)(1,3-thiazol-2-yl)]-5-methylthiophene-2-carboxamidine [Example 290]” here?
Its Ki is 30 nM.
